{"source": "patent EP0155104A2", "about": "“Free analyte assay” (priority 1984, dated 1985)", "key": {"[1]": {"tested_on": "serum proteins", "experiment": "Amerlex free T4 radioimmunoassay: Bo value with added blocking agent", "format": "binding"}, "[2]": {"tested_on": "natural protein binders", "details": "in body fluids; cited from earlier work"}, "[3]": {"target": "T1, thyroxine binding globulin (TBG) (Homo sapiens, UniProt P05543)", "T1 sequence (P05543 21-415)": "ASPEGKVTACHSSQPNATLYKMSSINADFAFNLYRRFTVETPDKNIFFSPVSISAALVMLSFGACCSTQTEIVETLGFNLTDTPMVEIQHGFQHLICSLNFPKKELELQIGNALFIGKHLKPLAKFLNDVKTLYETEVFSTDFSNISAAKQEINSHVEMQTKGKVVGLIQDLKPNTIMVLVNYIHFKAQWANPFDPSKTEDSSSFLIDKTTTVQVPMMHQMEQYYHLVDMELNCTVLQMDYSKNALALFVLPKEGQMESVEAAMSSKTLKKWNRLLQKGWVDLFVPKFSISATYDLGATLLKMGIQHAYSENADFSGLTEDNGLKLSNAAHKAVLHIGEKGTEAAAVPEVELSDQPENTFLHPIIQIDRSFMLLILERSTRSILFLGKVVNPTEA", "details": "in body fluids; cited from earlier work"}, "[4]": {"target": "thyroxine binding prealbumin (TBPA) (Homo sapiens, UniProt P02766)", "details": "in body fluids; cited from earlier work"}, "[5]": {"target": "albumin (Alb) (Homo sapiens, UniProt P02768)", "sequence (P02768 25-609)": "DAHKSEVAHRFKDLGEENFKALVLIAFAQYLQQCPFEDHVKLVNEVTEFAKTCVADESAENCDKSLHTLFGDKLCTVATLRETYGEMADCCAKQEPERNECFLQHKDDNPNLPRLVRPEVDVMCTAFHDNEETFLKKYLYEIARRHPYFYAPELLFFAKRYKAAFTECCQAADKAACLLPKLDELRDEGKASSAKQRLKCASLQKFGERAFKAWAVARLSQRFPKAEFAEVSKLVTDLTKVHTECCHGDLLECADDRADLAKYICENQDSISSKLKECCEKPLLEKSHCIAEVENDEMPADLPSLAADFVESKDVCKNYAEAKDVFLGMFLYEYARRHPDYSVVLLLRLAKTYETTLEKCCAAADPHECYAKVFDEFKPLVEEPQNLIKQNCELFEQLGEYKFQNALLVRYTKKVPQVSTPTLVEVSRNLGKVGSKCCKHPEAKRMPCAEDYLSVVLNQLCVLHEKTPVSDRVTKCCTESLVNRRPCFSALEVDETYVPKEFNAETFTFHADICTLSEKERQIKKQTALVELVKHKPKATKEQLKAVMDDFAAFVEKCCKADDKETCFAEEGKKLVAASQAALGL", "details": "cited from earlier work"}, "[6]": {"details": "blocking agent 10^-3 M, no addition: 67.7"}, "[7]": {"details": "blocking agent 10^-2 M, no addition: 67.7"}}, "note": "Several values for one entry are separate records, joined by “and”; a condition that tells them apart may be missing. Equal values may be shown once. Read-outs that look alike come from different tables or passages of the source.", "data": [{"smiles": "O=[N+]([O-])c1ccc(O)c([N+](=O)[O-])c1", "note": "[2,4-dinitrophenol]", "values": [{"measurement": "Bo (% tracer bound)", "setting": "[1]; [6]", "value": 60.0, "unit": "%"}]}, {"smiles": "O=C(O)c1cc(O)ccc1O", "note": "[Gentisate, sodium gentisate (2,5-dihydroxybenzoate)]", "values": [{"measurement": "Bo (% tracer bound)", "setting": "[1]; [7]", "value": 71.8, "unit": "%"}, {"measurement": "Bo (% tracer bound)", "setting": "[1]; [6]", "value": 70.5, "unit": "%"}]}, {"smiles": "O=C(O)c1c(O)cccc1O", "note": "[Gamma resorcylate, sodium gamma-resorcylate (2,6-dihydroxybenzoate)]", "values": [{"measurement": "Bo (% tracer bound)", "setting": "[1]; [7]", "value": 51.6, "unit": "%"}, {"measurement": "Bo (% tracer bound)", "setting": "[1]; [6]", "value": 70.3, "unit": "%"}]}, {"smiles": "O=C(O)c1cc(S(=O)(=O)O)ccc1O", "note": "[SSA, 5-sulphosalicylic acid]", "values": [{"measurement": "Bo (% tracer bound)", "setting": "[1]; SSA 1x10^-2 M, no SSA: 65", "value": 82.5, "unit": "%"}, {"measurement": "Bo (% tracer bound)", "setting": "[1]; SSA 1x10^-3 M, no SSA: 65", "value": 74, "unit": "%"}, {"measurement": "Bo (% tracer bound)", "setting": "[1]; SSA 2x10^-2 M, T4-analogue tracer bound to antiserum at zero T4, no SSA: 65", "value": 82, "unit": "%"}, {"measurement": "Bo (% tracer bound)", "setting": "[1]; SSA 2x10^-3 M, no SSA: 65", "value": 80, "unit": "%"}, {"measurement": "Bo (% tracer bound)", "setting": "[1]; SSA 2x10^-4 M, no SSA: 65", "value": 68, "unit": "%"}, {"measurement": "Bo (% tracer bound)", "setting": "[1]; SSA 5x10^-3 M, no SSA: 65", "value": 78, "unit": "%"}, {"measurement": "Bo (% tracer bound)", "setting": "[1]; SSA 5x10^-4 M, no SSA: 65", "value": 72, "unit": "%"}, {"measurement": "Bo (% tracer bound)", "setting": "[1]; SSA 5x10^-5 M, no SSA: 65", "value": 66, "unit": "%"}]}, {"smiles": "NC(=O)c1ccccc1O", "note": "[Salicylamide, salicylamide]", "values": [{"measurement": "Bo (% tracer bound)", "setting": "[1]; [7]", "value": 43.0, "unit": "%"}, {"measurement": "Bo (% tracer bound)", "setting": "[1]; [6]", "value": 67.5, "unit": "%"}]}, {"smiles": "N[C@@H](Cc1cc(I)c(Oc2ccc(O)c(I)c2)c(I)c1)C(=O)O", "note": "[T3, Tri-iodothyronine]", "values": [{"measurement": "in free form", "setting": "[2]", "value": 0.3, "unit": "%"}, {"measurement": "share of the bound fraction bound to TBG", "setting": "[3]", "value": 60, "unit": "%"}, {"measurement": "share of the bound fraction bound to TBPA", "setting": "[4]", "value": 15, "unit": "%"}, {"measurement": "share of the bound fraction bound to Alb", "setting": "[5]", "value": 25, "unit": "%"}]}, {"smiles": "O=C([O-])c1ccccc1O.[Na+]", "note": "[Salicylate, sodium salicylate]", "values": [{"measurement": "Bo (% tracer bound)", "setting": "[1]", "value": "72.6% and 69.5%"}]}, {"smiles": "N[C@@H](Cc1cc(I)c(Oc2cc(I)c(O)c(I)c2)c(I)c1)C(=O)O", "note": "[T4, Thyroxine]", "values": [{"measurement": "bound to natural protein binders", "setting": "[2]", "value": 99.97, "unit": "%"}, {"measurement": "share of the bound fraction bound to TBG", "setting": "[3]", "value": 70, "unit": "%"}, {"measurement": "share of the bound fraction bound to TBPA", "setting": "[4]", "value": 20, "unit": "%"}]}]}
